These results are taken from patent US10570157B2, “Cyclic diarylboron derivatives as NLRP3 inflammasome inhibitors” (The University of Manchester, priority 2015, dated 2020).

The subject of series [1] is inflammasome / IL-1β release in THP1 cell line. Description: IL-1β release from LPS-primed, nigericin-activated THP1 cells (ELISA). Format: cell-based, human. Conditions: for potency in the screen of NBC molecules (effect on IL-1β release): 10 μM compound, 15 min before nigericin (20 μM, 1 h), LPS-primed THP1 cells, normalised to nigericin-induced IL-1β release. Here is the method: Data are the mean±SD of at least 4 separate experiments.
To screen the compounds of the invention, the human monocytic THP1 cell line was used. Cells were primed with LPS (1 μg/ml, 4 h) and then treated with vehicle (0.5% DMSO) or NBC molecule of the invention (see compounds listed below) at 10 μM for 15 min before activation of the inflammasome and IL-1β release with nigericin (20 μM, 1 h). The NBC molecule was present throughout nigericin stimulation. The effects of the molecules on IL-1β release were normalised to nigericin-induced IL-1β release in the absence of any inhibitor (FIGS. 1-3).
(An ELISA detects its analyte on a solid surface through an enzyme-linked reagent.)

For `CC(=O)C1=C(C(Cl)(Cl)Cl)N[B-](c2ccccc2)(c2ccccc2)[O+]=C1N` [compound 14, (Z)-2-Acetyl-3-amino-4,4,4-trichlorobut-2-enamide diphenylboron], in series [1], the “potency in the screen of NBC molecules (effect on IL-1β release)” value (shortened to “potency in the screen of NBC molecules”) is given as “most potent”. Besides, the IC50 (commonly the midpoint of a concentration-inhibition curve) in series [1] (Homo sapiens, THP-1, THP1 cells, LPS primed, nigericin stimulated, FIG. 3) is 500 nM.
For the molecule `NC(=O)C1=C(C(Cl)(Cl)Cl)N[B-](c2ccccc2)(c2ccccc2)[O+]=C1N` [compound 42, 6-Amino-5-carbamoyl-2,2-diphenyl-4-(trichloromethyl)-2,3-dihydro-1,3,2-oxazaborinin-1-ium-2-uide], the “potency in the screen of NBC molecules” value in series [1] is listed as “most potent”.
As for `CC(=O)C1=C(C(Cl)(Cl)Cl)N[B-](c2ccccc2)(c2ccc(C)cc2)[O+]=C1N` (stereo not drawn) [compound 59, 5-Acetyl-6-amino-2-(phenyl)-2-(p-tolyl)-4-(trichloromethyl)-2,3-dihydro-1,3,2-oxazaborinin-1-ium-2-uide], the melting point (commonly the temperature of the solid-liquid transition) lay in the range of 141 to 143 °C.
In the case of `CC1=[O+][B-](c2ccccc2)(c2ccccc2)NC(C(Cl)(Cl)Cl)=C1C(=O)OC(C)(C)C` [compound 41, 5-(tert-Butoxycarbonyl)-2,2-di phenyl-6-methyl-4-(trichloromethyl)-2,3-dihydro-1,3,2-oxazaborinin-1-ium-2-uide], the melting point lay within 147 to 149 °C.
In the case of `CC(=O)C1=C(C(Cl)(Cl)Cl)N[B-](c2ccccc2)(c2ccccc2)[O+]=C1NCc1ccc2ccc3cccc4ccc1c2c34`, the melting point was 167 to 169 °C (dec.).
As for `CC(=O)C1=C(C(Cl)(Cl)Cl)N[B-](c2ccccc2)(c2ccccc2)[O+]=C1NC1CCCCC1` [compound 48, 5-Acetyl-6-(cyclohexylamino)-2,2-diphenyl-4-(trichloromethyl)-2,3-dihydro-1,3,2-oxazaborinin-1-ium-2-uide], the melting point is 53 to 54 °C. Moreover, the “potency in the screen of NBC molecules” value in series [1] is listed as “most potent”.
As to `CC(=O)C1=C(C(Cl)(Cl)Cl)N[B-](c2ccc(C)cc2)(c2ccc(C)cc2)[O+]=C1N` [compound 57, 5-Acetyl-6-amino-2,2-bis(p-tolyl)-4-(trichloromethyl)-2,3-dihydro-1,3,2-oxazaborinin-1-ium-2-uide], the melting point was 145 to 148 °C (dec.).
